Legend:
[1] = target: p300 HAT domain (residues 1287-1666) (Homo sapiens (Human), UniProt Q09472); assay: p300 HAT SPA assay (scintillation proximity assay, acetylation of biotinylated H3(1-21) peptide); assay type: biochemical; conditions: p300 HAT domain; average of at least 2 replicate titrations; read-out: P300 HAT SPA IC50
How it was run: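 Purified p300 HAT domain reaction transferred to streptavidin plates to capture biotinylated H3(1-21) peptide, incubated 1.5 hr at RT, and read by scintillation proximity. IC50 values derived from concentration-response data.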

full length p300 = full length p300 (Homo sapiens (Human), UniProt Q09472); assay: full length p300 SPA assay; assay type: biochemical; conditions: average of at least 2 replicate titrations, read-out: FL P300 IC50
Chain of full length p300 (Q09472 whole entry): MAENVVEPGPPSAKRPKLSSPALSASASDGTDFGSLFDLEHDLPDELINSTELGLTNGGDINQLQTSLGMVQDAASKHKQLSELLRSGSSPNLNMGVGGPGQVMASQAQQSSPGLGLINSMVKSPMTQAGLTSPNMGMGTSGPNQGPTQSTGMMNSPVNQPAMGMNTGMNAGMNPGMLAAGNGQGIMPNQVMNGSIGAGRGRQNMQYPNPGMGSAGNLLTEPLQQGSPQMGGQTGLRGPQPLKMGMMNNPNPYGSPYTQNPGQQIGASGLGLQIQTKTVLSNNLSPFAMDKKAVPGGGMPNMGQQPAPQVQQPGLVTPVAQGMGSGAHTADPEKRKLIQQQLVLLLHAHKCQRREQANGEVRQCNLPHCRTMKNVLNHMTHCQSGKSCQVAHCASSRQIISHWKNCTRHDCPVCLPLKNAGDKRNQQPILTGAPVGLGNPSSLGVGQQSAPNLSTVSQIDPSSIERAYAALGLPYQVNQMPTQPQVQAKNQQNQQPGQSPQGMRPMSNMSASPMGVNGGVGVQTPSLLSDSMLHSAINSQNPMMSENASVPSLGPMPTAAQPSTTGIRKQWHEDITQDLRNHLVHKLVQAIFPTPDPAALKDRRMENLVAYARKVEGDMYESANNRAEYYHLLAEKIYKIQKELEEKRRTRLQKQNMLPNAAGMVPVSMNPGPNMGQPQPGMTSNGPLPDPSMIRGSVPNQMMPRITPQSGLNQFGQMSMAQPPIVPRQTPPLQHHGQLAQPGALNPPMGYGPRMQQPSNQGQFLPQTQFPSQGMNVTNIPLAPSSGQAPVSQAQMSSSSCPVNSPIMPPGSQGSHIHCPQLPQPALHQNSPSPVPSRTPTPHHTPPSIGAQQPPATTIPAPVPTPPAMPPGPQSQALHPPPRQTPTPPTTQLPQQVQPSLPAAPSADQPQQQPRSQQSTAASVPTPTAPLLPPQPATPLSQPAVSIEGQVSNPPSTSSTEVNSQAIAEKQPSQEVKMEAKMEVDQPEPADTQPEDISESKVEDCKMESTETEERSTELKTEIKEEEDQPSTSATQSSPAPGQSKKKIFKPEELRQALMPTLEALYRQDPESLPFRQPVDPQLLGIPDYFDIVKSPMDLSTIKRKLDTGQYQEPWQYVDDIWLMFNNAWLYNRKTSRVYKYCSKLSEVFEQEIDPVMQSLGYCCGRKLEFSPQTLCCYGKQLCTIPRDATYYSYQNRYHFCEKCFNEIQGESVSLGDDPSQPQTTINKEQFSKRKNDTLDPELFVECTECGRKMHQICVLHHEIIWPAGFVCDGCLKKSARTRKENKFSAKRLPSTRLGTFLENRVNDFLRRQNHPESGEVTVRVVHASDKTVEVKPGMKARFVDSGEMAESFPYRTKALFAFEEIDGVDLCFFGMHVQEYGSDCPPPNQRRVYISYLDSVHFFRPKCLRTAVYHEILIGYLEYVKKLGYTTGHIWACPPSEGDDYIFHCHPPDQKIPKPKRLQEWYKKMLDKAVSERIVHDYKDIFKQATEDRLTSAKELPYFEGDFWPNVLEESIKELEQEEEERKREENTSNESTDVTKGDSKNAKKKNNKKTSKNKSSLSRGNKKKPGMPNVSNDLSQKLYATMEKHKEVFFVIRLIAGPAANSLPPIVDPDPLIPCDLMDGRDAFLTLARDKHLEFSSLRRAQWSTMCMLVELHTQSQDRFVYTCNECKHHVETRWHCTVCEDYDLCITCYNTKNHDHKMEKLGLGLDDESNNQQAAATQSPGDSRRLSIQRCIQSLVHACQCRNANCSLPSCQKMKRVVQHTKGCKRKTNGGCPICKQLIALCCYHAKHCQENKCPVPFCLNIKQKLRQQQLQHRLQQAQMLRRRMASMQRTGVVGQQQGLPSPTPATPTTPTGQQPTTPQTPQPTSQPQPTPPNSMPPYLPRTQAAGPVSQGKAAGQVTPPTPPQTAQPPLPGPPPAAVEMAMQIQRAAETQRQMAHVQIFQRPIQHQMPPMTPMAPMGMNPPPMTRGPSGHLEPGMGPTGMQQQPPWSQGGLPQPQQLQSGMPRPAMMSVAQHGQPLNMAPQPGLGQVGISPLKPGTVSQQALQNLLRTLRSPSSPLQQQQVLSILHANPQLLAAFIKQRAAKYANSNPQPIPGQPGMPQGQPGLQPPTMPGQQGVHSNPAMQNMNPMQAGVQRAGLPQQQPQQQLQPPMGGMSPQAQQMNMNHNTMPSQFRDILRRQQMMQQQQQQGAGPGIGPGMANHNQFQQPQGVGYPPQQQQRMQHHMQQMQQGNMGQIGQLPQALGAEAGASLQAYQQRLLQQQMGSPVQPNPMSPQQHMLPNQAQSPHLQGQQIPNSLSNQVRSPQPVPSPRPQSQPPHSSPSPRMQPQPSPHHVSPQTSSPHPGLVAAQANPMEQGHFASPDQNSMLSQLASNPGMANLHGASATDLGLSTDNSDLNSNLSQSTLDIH
Method: Reactions were initiated with 12.5 μL 2 μM biotinylated H3(1-21) peptide (New England Peptide) and run for 1 hr at RT, then quenched with 20 μL stop solution (200 mM Tris pH 8.0, 200 mM EDTA, 2M NaCl, 160 μM anacardic acid). 35 μL of the reaction volume was transferred to a 384-well streptavidin FlashPlate (PerkinElmer) using a Bravo liquid handler (Velocity 11) and incubated for 1.5 hr at RT. Plates were aspirated, washed with 95 μL wash buffer (15 mM Tris pH 8.5, 0.069 μM Brij-35), aspirated, sealed, and scintillation counts read on a Topcount (PerkinElmer). Data were analyzed in Genedata to determine inhibitor IC50 values.
The full length p300 SPA assay was run following the same protocol as p300 HAT SPA assay, but used 6 nM purified full length p300 (purchased from Active Motif) in place of the purified p300-HAT domain.

[2] = tested on: acetylation of chromatin at H3K18 (catalyzed by p300 and CBP) in HCT-116 cells; assay: H3K18Ac MSD cellular assay; assay type: cell-based; conditions: Homo sapiens, HCT-116, 2 h, 2 hr treatment, average of at least 2 replicate titrations
Method: Select compounds were also evaluated in a H3K18Ac MSD cellular assay that measures the ability of compounds to inhibit the acetylation of chromatin at H3K18, a process catalyzed by p300 and CBP. In a typical experiment the p300 HAT inhibitory activity inside cells of the compounds described herein was determined in accordance with the following experimental method. 20 k HCT-116 cells per well are plated in 75 μL RPMI+10% FBS media the night before treatment. Compounds plated in DMSO at 4× final concentration are resuspended in 30 μL RPMI+10% FBS, then 25 μL is combined with corresponding wells containing cells. Treated cells are incubated for 2 hr at 37° C., then lysed in 500 μL final volume and frozen at −80° C. MSD plates (Meso Scale Discovery) are coated overnight at 4° C. with 60 μL 1:500α-total histone antibody (Millipore MAB3422) in PBS. Plates are then blocked with 5% BSA in TBST shaking at RT for 1 hr, washed, and 30 μL lysate added to each well for 2 hr shaking at RT. Plates are washed and 25 μL 1:216α-H3K18ac antibody (CST 9675) in PBS added, then incubated for 1 hr shaking at RT. Plates are washed again, then 25 μL 1:1000 Sulfo-Tag goat a-rabbit antibody (Meso Scale Discovery R32Ab-1) in PBS is added for 1 hr shaking at RT. Plates are washed once more, then 150 μL 1× Read Buffer (MSD #R92TD-3) is added to all wells and read on MSD SECTOR Imager 2400 using the conventional read setup.

Chain of p300 HAT domain (residues 1287-1666) (Q09472 1287-1666): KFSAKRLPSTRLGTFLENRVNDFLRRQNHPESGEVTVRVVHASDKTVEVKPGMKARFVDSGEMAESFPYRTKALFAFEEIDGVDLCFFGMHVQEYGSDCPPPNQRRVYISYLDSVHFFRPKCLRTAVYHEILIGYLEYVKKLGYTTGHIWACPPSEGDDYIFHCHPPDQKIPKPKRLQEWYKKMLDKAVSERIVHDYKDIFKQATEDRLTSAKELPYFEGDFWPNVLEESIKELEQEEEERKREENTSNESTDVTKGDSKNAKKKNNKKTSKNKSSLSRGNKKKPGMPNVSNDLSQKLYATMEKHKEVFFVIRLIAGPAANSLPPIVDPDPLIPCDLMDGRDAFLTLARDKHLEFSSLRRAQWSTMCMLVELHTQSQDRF

SMILES | IC50 [1] [nM] | IC50 (full length p300) [nM] | EC50 [2] [nM]
O=C(c1c[nH]c2ccccc12)C(NCCc1ccc(Cl)cc1)c1cccnc1 (racemic) [43 Racemic, (rac)-2-((4-chlorophenethyl)amino)-1-(1H-indol-3-yl)-2-(pyridin-3-yl)ethan-1-one] | 4210 | 145 | 3900
NS(=O)(=O)c1ccc(CCNC(C(=O)c2c[nH]c3c(Cl)cccc23)c2ccccc2)cc1 (single isomer, unassigned) [15 Isomer 2] | 1490 | 81.2 | 405
O=C(c1c[nH]c2ccccc12)C(NCCc1ccc(C(F)(F)F)cc1)c1ccccc1 (single isomer, unassigned) [21 Isomer 1] | 715 | 100 | 91.3
O=C(c1c[nH]c2ccccc12)C(NCCc1ccc(F)cc1)c1ccccc1 (single isomer, unassigned) [22 Isomer 2] | 2320 | 20.8 | 1690
NS(=O)(=O)c1ccc(CCNC(C(=O)c2c[nH]c3cnccc23)c2ccccc2)cc1 (single isomer, unassigned) [32 Isomer 1] | 1450 | 102 | 3670
CN(C)c1ccc(CCNC(C(=O)c2c[nH]c3ccccc23)c2ccccc2)cc1 (single isomer, unassigned) [39 Isomer 2] | 770 | 27.5 | 529
Cc1nc(C(=O)C(NCCc2ccc(Cl)cc2)c2ccccc2)c2ccccn12 (single isomer, unassigned) [45 Isomer 1] | 5550 | 219 | 13400
O=C(c1cnc2ccccn12)C(NCCc1ccc(Cl)cc1)c1ccccc1 (single isomer, unassigned) [46 Isomer 2] | 6550 | 283 | 29400
CN(C)C(=O)CCc1ccc2c(C(=O)C(NCCc3ccc(F)cc3)c3ccccc3)c[nH]c2c1 (single isomer, unassigned) [49 Isomer 2] | 2210 | 55.3 | 754
COc1ccc2c(C(=O)C(NCCc3ccc(S(N)(=O)=O)cc3)c3ccccc3)c[nH]c2c1 (single isomer, unassigned) [51 Isomer 2] | 1290 | 25.5 | 324
COc1ccc2c(C(=O)C(NCCc3ccc(Cl)cc3)c3ccccc3)c[nH]c2c1 (single isomer, unassigned) [60 Isomer 2] | 1090 | 178 | 546
O=C(c1c[nH]c2cc(OCc3ccccc3)ccc12)C(NCCc1ccc(F)cc1)c1ccccc1 (single isomer, unassigned) [61 Isomer 2] | 1070 | 49.7 | 825
CN(C)C(=O)Cc1ccc2c(C(=O)C(NCCc3ccc(C#N)cc3)c3ccccc3)c[nH]c2c1 (single isomer, unassigned) [63 Isomer 1] | 382 | 8.78 | 337
CCNC(=O)c1ccc2c(C(=O)C(NCC(C)c3ccc(C#N)cc3)c3ccccc3)cnn2c1 (single isomer, unassigned) [69 Isomer 4] | 20.7 | 17.9 | 43.9
CCNC(=O)c1ccc2c(C(=O)C(NCC(C)c3ccc(C#N)cc3)c3ccccc3)c[nH]c2c1 (single isomer, unassigned) [75 Isomer 4] | 8.76 | 0.711 | 19.3
Cn1cc(-c2ccc3c(C(=O)C(NCCc4ccc(F)cc4)c4ccccc4)c[nH]c3c2)cn1 (single isomer, unassigned) [78 Isomer 2] | 716 | 10.9 | 104
COc1ccc(CCNC(C(=O)c2c[nH]c3c(C)cccc23)c2ccccc2)cc1 (single isomer, unassigned) [80 Isomer 2] | 1020 | 33.5 | 817
O=C(c1c[nH]c2cc(-c3cccnc3)ccc12)C(NCCc1ccc(F)cc1)c1ccccc1 (single isomer, unassigned) [81 Isomer 2] | 1150 | 14.6 | 193
